# Assay results reported in US10822374B2, “Cancer therapies and diagnostics” (Dana-Farber Cancer Institute, Inc., priority 2010, dated 2020).
# Entries after “also recorded” stand apart in the source; their conditions may differ. Like-named read-outs stand apart in the source and are kept apart here. Positions of bridges follow the written chain, without caps; N, C: chain ends. Non-standard residues stand in square brackets, D forms with d. No end group written: not given here. R8 = C=CCCCCCC[C@@](C)(N)C(=O)O; S5 = C=CCCC[C@](C)(N)C(=O)O
# Legend:
# HDM2 = biological target: T1, HDM2 (Homo sapiens, UniProt Q00987); assay: Anti-FITC pull down in SJSA-X cells, HDM2 western; format: cell-based; settings: 15 μM, 12 hours
# T1 construct: endogenous in cells; host or cells: SJSA-X (derivative of SJSA-1 osteosarcoma)
# HDMX = biological target: T2, HDMX (Homo sapiens, UniProt O15151); assay: Anti-FITC pull down in SJSA-X cells, HDMX western; format: cell-based; settings: 15 μM, 12 hours
# T2 construct: expressed in transfected cells; host or cells: SJSA-X (SJSA-1 engineered to overexpress HDMX)
# T2 sequence (O15151 1-490): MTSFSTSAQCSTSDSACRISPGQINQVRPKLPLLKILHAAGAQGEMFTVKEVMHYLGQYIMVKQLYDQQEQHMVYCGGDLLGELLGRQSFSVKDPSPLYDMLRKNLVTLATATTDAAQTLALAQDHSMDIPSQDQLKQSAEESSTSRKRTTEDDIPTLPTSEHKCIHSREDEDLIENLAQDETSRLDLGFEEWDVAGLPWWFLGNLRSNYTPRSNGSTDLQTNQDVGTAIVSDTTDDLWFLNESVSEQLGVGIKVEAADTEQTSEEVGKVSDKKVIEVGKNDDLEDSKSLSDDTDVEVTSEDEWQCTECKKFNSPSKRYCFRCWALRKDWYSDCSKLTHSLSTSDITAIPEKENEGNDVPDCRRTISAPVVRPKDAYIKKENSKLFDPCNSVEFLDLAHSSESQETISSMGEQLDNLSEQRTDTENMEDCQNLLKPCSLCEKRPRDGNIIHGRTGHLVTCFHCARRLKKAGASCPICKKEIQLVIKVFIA
# SJSA-X cells [1] = assay: FITC-peptide detection in SJSA-X cellular lysates (cell penetration); settings: 12 hours
# Procedure: Cells were then lysed and anti-FITC pull down was performed, followed by HDM2 and HDMX western analyses.
# [2] = tested on: p53 transcriptional targets HDM2, p21, MIC-1; assay: qPCR of p53 transcriptional targets in JEG-3 cells; settings: JEG-3, 20 μM, 6 h
# Procedure: qPCR studies were performed as follows. […] Total RNA was reverse transcribed to cDNA using Superscript III reverse transcriptase (Invitrogen). The derived cDNA was employed as the substrate to measure relative transcript levels by qRT-PCR on a PRISM 7700 system using SYBR Green PCR Master Mix (Applied Biosystems). Primers specific for HDM2, p21, MIC-1, and the UBB control were employed. Triplicate reactions were prepared in 96-well optical PCR plates.
# JEG-3 cells [3] = assay: CellTiter-Glo viability, JEG-3; format: cell-based, human; settings: JEG-3 (HDM2−/HDMX++), 24 h
# Procedure: (§1) All viability assays were performed in at least triplicate.
# SJSA-X cells [4] = assay: CellTiter-Glo viability, SJSA-X; format: cell-based, human; settings: SJSA-X (HDM2++/HDMX++), 24 h
# Procedure: as §1
# p53 [5] = assay: p53 western in MCF-7 cells; format: cell-based, human; settings: MCF-7, 20 μM
# Procedure: FIG. 8 is an image of an immunoblot showing that pharmacologic induction of p53-HDMX complexes sensitizes Nutlin-3-resistant cancer cells to HDMX inhibition. […]. Cells were exposed to MG-132 at 10 μM for 6 hours to induce HDMX-p53 complex formation. Cellular extracts (input-left side immunoblot) and anti-HDMX immunoprecipitates (IP:HDMX-right side immunoblot) were analyzed by SDS-PAGE and Western blotting. Levels of p53 and HAUSP are shown.
# JEG-3 xenografts = assay: JEG-3 murine xenograft tumor growth; settings: 10 mg/kg i.v. once daily for 4 days
# MCF-7 cells = assay: CellTiter-Glo viability, MCF-7; format: cell-based, human; settings: MCF-7 (HDM2+/HDMX+), 24 h
# Procedure: as §1
# HCT116 cells = assay: CellTiter-Glo viability, HCT116; format: cell-based, human; settings: HCT116 (HDM2+/HDMX+), 24 h
# Procedure: as §1
# p53 [6] = assay: p53 western of JEG-3 cellular extracts (input); format: cell-based, human; settings: JEG-3, 20 μM, 6 hours
# Procedure: ; Bethyl Laboratories) and western analysis of electrophoresed protein was conducted using p53 (DO-1; EMD Chemicals or FL-393; Santa Cruz Biotechnology), HDMX (MDMX-82; Abcam), and HAUSP (anti-USP7, Bethyl Labs) antibodies, and Western Lightning chemiluminescence reagent (PerkinElmer). […]
# SJSA-1 cells = assay: CellTiter-Glo viability, SJSA-1; format: cell-based, human; settings: SJSA-1 (HDM2++/HDMX−), 24 h
# Procedure: as §1
# [7] = tested on: WS1 normal human fibroblasts; assay: CellTiter-Glo viability, WS1 fibroblasts
# Procedure: (§2) Finally, WS1 normal human fibroblasts were tested to evaluate relative toxicity in tumor versus non-transformed cells.
# (§3) Cultured cells were maintained in the appropriate media (SJSA-1, SJSA-X, SJSA-DD, A431 (DMEM); JEG-3, MCF-7, WS1 (EMEM); HCT116 (McCoy's 5A)) supplemented with fetal calf serum and penicillin/streptomycin. […] Viability was assayed by addition of CellTiter-Glo™ chemiluminescence reagent according to the manufacturer's protocol (Promega). Luminescence was measured using a Spectramax M5 microplate reader (Molecular Devices). […] All viability assays were performed in at least triplicate.
# JEG-3 cells [8] = assay: Caspase-3/7 activation in JEG-3 cells; format: cell-based, human; settings: JEG-3, 0.3-10 μM, 12 h
# Procedure: Apoptosis studies were performed as follows.
# SJSA-DD cells = assay: CellTiter-Glo viability, SJSA-DD; format: cell-based, human; settings: SJSA-1 overexpressing dominant negative p53 (SJSA-DD), 24 h
# Procedure: as §2, §3
# Proteolytic stability = format: in vitro ADME
# Text: The amide bond of the peptide backbone is susceptible to hydrolysis by proteases, thereby rendering peptidic compounds vulnerable to rapid degradation in vivo. Peptide helix formation, however, typically buries the amide backbone and therefore may shield it from proteolytic cleavage. The peptidomimetic macrocycles of the present invention may be subjected to in vitro trypsin proteolysis to assess for any change in degradation rate compared to a corresponding uncrosslinked polypeptide. For example, the peptidomimetic macrocycle and a corresponding uncrosslinked polypeptide are incubated with trypsin agarose and the reactions quenched at various time points by centrifugation and subsequent HPLC injection to quantitate the residual substrate by ultraviolet absorption at 280 nm. Briefly, the peptidomimetic macrocycle and peptidomimetic precursor (5 mcg) are incubated with trypsin agarose (Pierce) (S/E~125) for 0, 10, 20, 90, and 180 minutes. Reactions are quenched by tabletop centrifugation at high speed; remaining substrate in the isolated supernatant is quantified by HPLC-based peak detection at 280 nm.
# [9] = tested on: bearing the R273H p53 mutation; assay: CellTiter-Glo viability, A431; format: cell-based, human; settings: A431, inactivating p53 point mutation, 24 h
# Procedure: as §2, §3
# [10] = tested on: RKO or SJSA-1 cancer cells; assay: Cell viability assays, RKO or SJSA-1 cancer cells; format: cell-based
# HDM2, p21, and MIC-1 = assay: qPCR of p53 targets in excised JEG-3 tumors; settings: tumors excised day 5
# [11] = tested on: HCT116 cells deficient in p53; assay: CellTiter-Glo viability, HCT116 deficient in p53; format: cell-based, human; settings: HCT116 with genetic deletion of p53, 24 h
# Procedure: as §2, §3
# full-length HDMX = biological target: T3, full-length HDMX (Homo sapiens, UniProt O15151); assay: Fluorescence polarization direct binding to HDMX; settings: FITC-labeled peptides, same dose ranges
# T3 construct: plasmid encoding full-length HDMX with N-terminal thioredoxin, S, and hexahistidine tags; thioredoxin (N, cleaved yes); S-tag (N, cleaved yes); hexahistidine (N, cleaved yes); made in house; host or cells: Escherichia coli BL21 (DE3) pLysS, pET32-LIC vector
# T3 sequence (O15151 1-490): T2 sequence (O15151 1-490)
# Procedure: Fluorescence polarization was then measured at equilibrium on a SpectraMax M5 microplate reader (Molecular Devices).
# T1 sequence (Q00987 whole entry): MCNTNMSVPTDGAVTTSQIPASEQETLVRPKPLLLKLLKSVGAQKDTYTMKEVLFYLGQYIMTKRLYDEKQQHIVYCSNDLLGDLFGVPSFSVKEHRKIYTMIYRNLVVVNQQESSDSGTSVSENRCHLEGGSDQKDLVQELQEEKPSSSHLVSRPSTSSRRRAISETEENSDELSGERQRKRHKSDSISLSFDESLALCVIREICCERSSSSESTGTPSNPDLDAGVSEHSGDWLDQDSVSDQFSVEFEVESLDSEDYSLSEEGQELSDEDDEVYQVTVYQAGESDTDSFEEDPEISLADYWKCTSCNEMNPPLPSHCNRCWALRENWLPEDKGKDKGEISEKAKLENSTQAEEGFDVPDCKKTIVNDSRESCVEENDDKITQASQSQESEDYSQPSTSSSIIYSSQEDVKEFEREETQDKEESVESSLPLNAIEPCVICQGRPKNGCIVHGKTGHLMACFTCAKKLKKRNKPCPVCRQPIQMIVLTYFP
Compound,upregulation of p53 transcriptional targets (mRNA) compared to vehicle [2],cell viability (JEG-3 cells [3]),cell viability (SJSA-X cells [4]),tumor growth (JEG-3 xenografts),cell viability (MCF-7 cells),cell viability (HCT116 cells),p53 levels (p53 [6]),cell viability (SJSA-1 cells),caspase-3/7 activation (JEG-3 cells [8]),cell viability (SJSA-DD cells),cell viability [9],cell viability [11],further results
CC(C)C[C@@H]1NC(=O)[C@H](CCCNC(=N)N)NC(=O)[C@H](Cc2c[nH]c3ccccc23)NC(=O)[C@H](CC(C)C)NC(=O)[C@H](CC(N)=O)NC(=O)[C@](C)(NC(=O)[C@H](Cc2ccccc2)NC(=O)[C@@H](NC(=O)[C@H](CCC(N)=O)NC(=O)[C@H](CCC(N)=O)NC(=O)[C@H](CO)NC(=O)[C@H](CCC(N)=O)NC(=O)CCNC(=S)Nc2ccc3c(c2)C(=O)OC32c3ccc(O)cc3Oc3cc(O)ccc32)[C@@H](C)O)CCCCCCC=CCCC[C@@](C)(C(=O)N[C@@H](CCC(N)=O)C(=O)N[C@@H](CC(N)=O)C(N)=O)NC(=O)[C@H](CC(C)C)NC1=O [FITC-SAH-p53-8],–,–,–,–,–,–,–,–,–,–,–,–,co-immunoprecipitation of native HDM2 (HDM2): specifically co-immunoprecipitated; co-immunoprecipitation of native HDMX (HDMX): specifically co-immunoprecipitated; penetration of intact SJSA-X cells (SJSA-X cells [1]): efficiently penetrated intact SJSA-X cells
"COc1ccc(C2=N[C@@H](c3ccc(Cl)cc3)[C@@H](c3ccc(Cl)cc3)N2C(=O)N2CCNC(=O)C2)c(OC(C)C)c1 [Nutlin-3, reference compound]",1.5-4 fold,little to no response; also recorded: most resistant,little to no response; also recorded: ineffective as a single agent,not affected,modestly sensitive,modestly sensitive,increase in p53 levels,very sensitive,little effect,completely insensitive,–,–,"p53 levels (p53 [5]): elevate p53 levels; viability of normal human fibroblasts ([7]; WS1, 24 h): no impact"
CC(=O)N[C@@H](CC(C)C)C(=O)N[C@@H](CO)C(=O)N[C@@H](CCC(N)=O)C(=O)N[C@@H](CCC(=O)O)C(=O)N[C@H](C(=O)N[C@@H](Cc1ccccc1)C(=O)N[C@]1(C)CCCCCCC=CCCC[C@@](C)(C(=O)N[C@@H](CCC(=O)O)C(=O)N[C@@H](CC(N)=O)C(N)=O)NC(=O)[C@H](CC(C)C)NC(=O)[C@H](CC(C)C)NC(=O)[C@H](CCCCN)NC(=O)[C@H](Cc2c[nH]c3ccccc23)NC(=O)[C@H](CC(C)C)NC(=O)[C@H](CC(=O)O)NC1=O)[C@@H](C)O [SAH-p53-4],–,–,–,–,–,–,–,–,–,–,–,–,proteolytic stability (Proteolytic stability): improved proteolytic stability
"SAH-p53-8: i, i+7 hydrocarbon-stapled p53 transactivation domain peptide (SEQ ID NO: 10), S20 and P27 replaced with olefinic residues",5-14 fold,dose-dependent inhibition of cell viability; also recorded: most sensitive,dose-dependent inhibition of cell viability; also recorded: restoring susceptibility,significantly suppressed tumor growth,dose-dependent inhibition of cell viability,dose-dependent inhibition of cell viability,increase in p53 levels,dose-dependent inhibition of cell viability,dose-responsive activation of caspase-3/7,completely insensitive,similarly unaffected,completely insensitive,"cell viability [10]: promoted cell death; reduction in tumor burden compared to vehicle and Nutlin-3 (JEG-3 xenografts; 5-day evaluation): 37-46%; transcriptional activation of HDM2, p21, and MIC-1 in tumors (HDM2, p21, and MIC-1): statistically significant transcriptional activation"
SAH-p53-8F19A: negative control peptide: SAH-p53-8 with F19 substituted by alanine (SEQ ID NO: 13) (QSQQTA[R8]NLWRLL[S5]QN; staple 7-14),–,inactive,inactive,–,inactive,inactive,–,inactive,–,inactive,inactive,inactive,interaction with HDMX (full-length HDMX): no interaction; viability of normal human fibroblasts [7]: inactive
